According to patent publication US11912699B2, “Tau-protein targeting compounds and associated” (Arvinas Operations, Inc., priority 2019, dated 2024):
Where a name gives a salt, the structure may show the parent alone.

Molecular target: T1, Tau P301L (Homo sapiens, UniProt P10636, P618L)
T1 construct: expressed in transfected cells
Experiment: In vitro tau degradation assay in CHOK1 Tau P301L cells (sarkosyl insoluble tau, WES)
Format: cell-based
Settings: CHO-K1; remaining tau protein in sarkosyl insoluble pellet; CHOK1 Tau P301L cells treated 48 hours with test compound at 1 μM, doxycycline removed for the last 24 hours; relative to DMSO doxycycline control; read-out: Tau Protein Degradation effect at 1 μM
Method in brief: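 T-Rex CHOK1 clone D1 with doxycycline-inducible (1 μg/ml) Tau P301L treated 48 h with compound at 1 μM, doxycycline removed for the final 24 h. Sarkosyl-insoluble tau quantified by WES capillary electrophoresis with Tau1 antibody, expressed relative to DMSO doxycycline control and binned as ≤50% or >50% remaining.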

T1 sequence (P10636 1-441 isoform P10636-8 P301L): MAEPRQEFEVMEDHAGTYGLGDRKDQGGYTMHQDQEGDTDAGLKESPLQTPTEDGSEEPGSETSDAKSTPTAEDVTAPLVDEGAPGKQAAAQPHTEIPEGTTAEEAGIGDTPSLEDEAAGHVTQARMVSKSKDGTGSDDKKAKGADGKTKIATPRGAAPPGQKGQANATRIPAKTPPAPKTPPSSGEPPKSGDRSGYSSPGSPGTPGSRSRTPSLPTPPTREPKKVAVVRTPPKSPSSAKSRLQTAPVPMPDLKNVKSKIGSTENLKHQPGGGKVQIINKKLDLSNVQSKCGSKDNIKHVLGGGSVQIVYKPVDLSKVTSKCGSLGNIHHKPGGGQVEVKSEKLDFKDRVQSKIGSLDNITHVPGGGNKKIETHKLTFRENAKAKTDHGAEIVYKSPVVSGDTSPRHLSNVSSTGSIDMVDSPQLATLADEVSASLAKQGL

Cn1c2ccncc2c2ccc(-c3ccc(OC4CC5(C4)CN(C(=O)CN4CCC(OC6CN(c7ccc8c(c7)C(=O)N(C7CCC(=O)NC7=O)C8=O)C6)CC4)C5)nc3)cc21 (stereo not drawn) [Compound 462, 2-(2,6-dioxopiperidin-3-yl)-5-(3-((1-(2-(6-((5-(5-methyl-5H-pyrido[4,3-b]indol-7-yl)pyridin-2-yl)oxy)-2-azaspiro[3.3]heptan-2-yl)-2-oxoethyl)piperidin-4-yl)oxy)azetidin-1-yl)isoindoline-1,3-dione] was tested. Which remaining activity at 1 µM did it give?
Its remaining activity at 1 µM is over 50%.

How did the remaining activity at 1 µM turn out when Cc1ccc(-c2cn3ccc(N(C)CCOCCOCCOc4ccc5c(c4)C(=O)N(C4CCC(=O)NC4=O)C5=O)cc3n2)cc1 (stereo not drawn) [Compound 463, 2-(2,6-dioxopiperidin-3-yl)-5-(2-(2-(2-(methyl(2-(p-tolyl)imidazo[1,2-a]pyridin-7-yl)amino)ethoxy)ethoxy)ethoxy)isoindoline-1,3-dione] was run?
The remaining activity at 1 µM was under 50%.

How did the remaining activity at 1 µM turn out when Cn1c2ccncc2c2ccc(-c3ccc(OC4CC5(C4)CN(C(=O)CC4CCN(CC6CN(c7ccc8c(c7)C(=O)N(C7CCC(=O)NC7=O)C8=O)C6)CC4)C5)nc3)cc21 (stereo not drawn) [Compound 472, 2-(2,6-dioxopiperidin-3-yl)-5-(3-((4-(2-(6-((5-(5-methyl-5H-pyrido[4,3-b]indol-7-yl)pyridin-2-yl)oxy)-2-azaspiro[3.3]heptan-2-yl)-2-oxoethyl)piperidin-1-yl)methyl)azetidin-1-yl)isoindoline-1,3-dione] was run?
Its remaining activity at 1 µM is under 50%.

Which remaining activity at 1 µM does the source give for O=C1CCC(N2C(=O)c3ccc(OCCN4CC5(C4)CN(C[C@H]4C[C@H](Oc6ccc(-c7ccn8c(n7)nc7ccccc78)cn6)C4)C5)cc3C2=O)C(=O)N1 (stereo partly drawn) [Compound 473, 5-(2-(6-(((1r,3r)-3-((5-(benzo[4,5]imidazo[1,2-a]pyrimidin-2-yl)pyridin-2-yl)oxy)cyclobutyl)methyl)-2,6-diazaspiro[3.3]heptan-2-yl)ethoxy)-2-(2,6-dioxopiperidin-3-yl)isoindoline-1,3-dione] here?
Its remaining activity at 1 µM is under 50%.

How did the remaining activity at 1 µM turn out when N#Cc1cc(-c2ccc3c4cnccc4n(C(F)F)c3c2)cnc1N1CCC(CCN2CCN(c3ccc4c(c3)CN(C3CCC(=O)NC3=O)C4=O)CC2)CC1 (stereo not drawn) [Compound 475, 5-(5-(difluoromethyl)-5H-pyrido[4,3-b]indol-7-yl)-2-(4-(2-(4-(2-(2,6-dioxopiperidin-3-yl)-1-oxoisoindolin-5-yl)piperazin-1-yl)ethyl)piperidin-1-yl)nicotinonitrile] was run?
The remaining activity at 1 µM was over 50%.

Which remaining activity at 1 µM does the source give for Cn1c2ccncc2c2ccc(-c3ccc(O[C@H]4C[C@H](CN5CCC(CCOc6ccc7c(c6)C(=O)N(C6CCC(=O)NC6=O)C7=O)CC5)C4)nc3)cc21 (stereo partly drawn) [Compound 478, 2-(2,6-dioxopiperidin-3-yl)-5-(2-(1-(((1r,3r)-3-((5-(5-methyl-5H-pyrido[4,3-b]indol-7-yl)pyridin-2-yl)oxy)cyclobutyl)methyl)piperidin-4-yl)ethoxy)isoindoline-1,3-dione] here?
The remaining activity at 1 µM was over 50%.

Which remaining activity at 1 µM does the source give for Nc1cccc2cnc(-n3ccc4cc(N5CCC(CCN6CCN(c7ccc8c(c7)C(=O)N(C7CCC(=O)NC7=O)C8=O)CC6)CC5)ncc43)cc12 (stereo not drawn) [Compound 480, 5-[4-(2-[1-[1-(5-aminoisoquinolin-3-yl)pyrrolo[2,3-c]pyridin-5-yl]piperidin-4-yl]ethyl)piperazin-1-yl]-2-(2,6-dioxopiperidin-3-yl)isoindole-1,3-dione] here?
Its remaining activity at 1 µM is over 50%.

O=C1CCC(N2C(=O)c3ccc(OCCN4CCC(OC5CN(c6ncc(-c7ccn8c(n7)nc7ccccc78)cc6C(F)(F)F)C5)CC4)cc3C2=O)C(=O)N1 (stereo not drawn) [Compound 483, 5-(2-(4-((1-(5-(benzo[4,5]imidazo[1,2-a]pyrimidin-2-yl)-3-(trifluoromethyl)pyridin-2-yl)azetidin-3-yl)oxy)piperidin-1-yl)ethoxy)-2-(2,6-dioxopiperidin-3-yl)isoindoline-1,3-dione] was tested. Which remaining activity at 1 µM did it give?
Its remaining activity at 1 µM is over 50%.

With Cn1c2ccncc2c2ccc(-c3ccc(O[C@H]4C[C@H](CN5CCC(CC6CCN(c7ccc8c(c7)C(=O)N(C7CCC(=O)NC7=O)C8=O)CC6)CC5)C4)nc3)cc21 (stereo partly drawn) [Compound 485, 2-(2,6-dioxopiperidin-3-yl)-5-(4-((1-(((1r,3r)-3-((5-(5-methyl-5H-pyrido[4,3-b]indol-7-yl)pyridin-2-yl)oxy)cyclobutyl)methyl)piperidin-4-yl)methyl)piperidin-1-yl)isoindoline-1,3-dione] as the molecule, how does the remaining activity at 1 µM read?
The remaining activity at 1 µM was under 50%.

For O=C1CCC(N2C(=O)c3ccc(N4CCN(CCC5CCN(c6ncc(-c7ccc8c9cnccc9n(C(F)F)c8c7)cc6C(F)(F)F)CC5)CC4)cc3C2=O)C(=O)N1 (stereo not drawn) [Compound 489, 5-[4-[2-[1-[5-[5-(difluoromethyl)pyrido[4,3-b]indol-7-yl]-3-(trifluoromethyl)-2-pyridyl]-4-piperidyl]ethyl]piperazin-1-yl]-2-(2,6-dioxo-3-piperidyl)isoindoline-1,3-dione trifluroacetate], which remaining activity at 1 µM is on record?
Its remaining activity at 1 µM is under 50%.

Cn1c2ccncc2c2ccc(-c3ccc(O[C@H]4C[C@H](OC5CCN(c6ccc7c(c6)C(=O)N(C6CCC(=O)NC6=O)C7=O)CC5)C4)nc3)cc21 (stereo partly drawn) [Compound 493, 2-(2,6-dioxopiperidin-3-yl)-5-(4-((1r,3r)-3-((5-(5-methyl-5H-pyrido[4,3-b]indol-7-yl)pyridin-2-yl)oxy)cyclobutoxy)piperidin-1-yl) isoindoline-1,3-dione] was tested. Which remaining activity at 1 µM did it give?
Its remaining activity at 1 µM is under 50%.

How did the remaining activity at 1 µM turn out when O=C1CCC(N2C(=O)c3ccc(N4CCN(CC5CCN(c6ncc(-c7ccc8c9cnccc9n(C(F)F)c8c7)cc6C(F)(F)F)CC5)CC4)cc3C2=O)C(=O)N1 (stereo not drawn) [Compound 494, 5-(4-((1-(5-(5-(difluoromethyl)-5H-pyrido[4,3-b]indol-7-yl)-3-(trifluoromethyl)pyridin-2-yl)piperidin-4-yl)methyl)piperazin-1-yl)-2-(2,6-dioxopiperidin-3-yl)isoindoline-1,3-dione] was run?
Its remaining activity at 1 µM is under 50%.

Which remaining activity at 1 µM does the source give for Cn1c2ccncc2c2ccc(C3CCN(CCC4CCN(c5ccc6c(c5)C(=O)N(C5CCC(=O)NC5=O)C6=O)CC4)CC3)cc21 (stereo not drawn) [Compound 498, 2-(2,6-dioxopiperidin-3-yl)-5-(4-(2-(4-(5-methyl-5H-pyrido[4,3-b]indol-7-yl)piperidin-1-yl)ethyl)piperidin-1-yl)isoindoline-1,3-dione] here?
Its remaining activity at 1 µM is under 50%.

How did the remaining activity at 1 µM turn out when Cn1c2ccncc2c2ccc(C3CCN(CCC4CCN(CC5CCN(c6ccc7c(c6)C(=O)N(C6CCC(=O)NC6=O)C7=O)CC5)CC4)CC3)cc21 (stereo not drawn) [Compound 502, 2-(2,6-dioxopiperidin-3-yl)-5-(4-((4-(2-(4-(5-methyl-5H-pyrido[4,3-b]indol-7-yl)piperidin-1-yl)ethyl)piperidin-1-yl)methyl)piperidin-1-yl)isoindoline-1,3-dione] was run?
Its remaining activity at 1 µM is under 50%.

With Cn1c2ccncc2c2ccc(-c3ccc(C4CCN(CCC5CCN(c6ccc7c(c6)C(=O)N(C6CCC(=O)NC6=O)C7=O)CC5)CC4)nc3)cc21 (stereo not drawn) [Compound 508, 2-(2,6-dioxopiperidin-3-yl)-5-(4-(2-(4-(5-(5-methyl-5H-pyrido[4,3-b]indol-7-yl)pyridin-2-yl)piperidin-1-yl)ethyl)piperidin-1-yl)isoindoline-1,3-dione] as the molecule, how does the remaining activity at 1 µM read?
The remaining activity at 1 µM was under 50%.

CN(C)c1cccc2cnc(-n3ccc4cc(N5CCC(CCN6CCN(c7ccc8c(c7)C(=O)N(C7CCC(=O)NC7=O)C8=O)CC6)CC5)ncc43)cc12 (stereo not drawn) [Compound 512, 5-(4-(2-(1-(1-(5-(dimethylamino)iso-quinolin-3-yl)-1H-pyrrolo[2,3-c]pyridin-5-yl)piperidin-4-yl)ethyl)piperazin-1-yl)-2-(2,6-dioxopiperidin-3-yl)isoindoline-1,3-dione] was tested. Which remaining activity at 1 µM did it give?
The remaining activity at 1 µM was under 50%.

Which remaining activity at 1 µM does the source give for O=C1CCC(N2C(=O)c3ccc(N4CCN(CCC5CCN(c6ncc(-c7ccc8c9cnccc9n(C(F)F)c8c7)cn6)CC5)CC4)cc3C2=O)C(=O)N1 (stereo not drawn) [Compound 514, 5-(4-(2-(1-(5-(5-(difluoromethyl)-5H-pyrido[4,3-b]indol-7-yl)pyrimidin-2-yl)piperidin-4-yl)ethyl)piperazin-1-yl)-2-(2,6-dioxopiperidin-3-yl)isoindoline-1,3-dione] here?
The remaining activity at 1 µM was under 50%.

Which remaining activity at 1 µM does the source give for Cn1c2ccncc2c2ccc(C3CCN([C@H]4C[C@@H](OC5CCN(CCOc6ccc7c(c6)C(=O)N(C6CCC(=O)NC6=O)C7=O)CC5)C4)CC3)cc21 (stereo partly drawn) [Compound 515, 2-(2,6-dioxopiperidin-3-yl)-5-(2-(4-((1s,3s)-3-(4-(5-methyl-5H-pyrido[4,3-b]indol-7-yl)piperidin-1-yl)cyclobutoxy)piperidin-1-yl)ethoxy) isoindoline-1,3-dione] here?
The remaining activity at 1 µM was under 50%.

How did the remaining activity at 1 µM turn out when O=C1CCC(N2C(=O)c3ccc(N4CCN(CCC5CCN(CCCn6c7ccccc7c7cnccc76)CC5)CC4)cc3C2=O)C(=O)N1 (stereo not drawn) [Compound 527, 5-(4-(2-(1-(3-(5H-pyrido[4,3-b]indol-5-yl)propyl)piperidin-4-yl)ethyl)piperazin-1-yl)-2-(2,6-dioxopiperidin-3-yl)isoindoline-1,3-dione] was run?
The remaining activity at 1 µM was under 50%.

How did the remaining activity at 1 µM turn out when O=C1CCC(N2C(=O)c3ccc(N4CCN(CCC5CCN(c6ncc(-c7ccc8c9cnccc9n(C(F)F)c8c7)cc6F)CC5)CC4)cc3C2=O)C(=O)N1 (stereo not drawn) [Compound 532, 5-[4-[2-[1-[5-[5-(difluoromethyl)pyrido[4,3-b]indol-7-yl]-3-fluoro-2-pyridyl]-4-piperidyl]ethyl]piperazin-1-yl]-2-(2,6-dioxo-3-piperidyl)isoindoline-1,3-dione trifluoroacetate] was run?
The remaining activity at 1 µM was under 50%.

Which remaining activity at 1 µM does the source give for Cn1c2ccncc2c2ccc(C#CC3CCN(CCN4CCN(c5ccc6c(c5)C(=O)N(C5CCC(=O)NC5=O)C6=O)CC4)CC3)cc21 (stereo not drawn) [Compound 533, 2-(2,6-dioxopiperidin-3-yl)-5-(4-(2-(4-((5-methyl-5H-pyrido[4,3-b]indol-7-yl)ethynyl)piperidin-1-yl)ethyl)piperazin-1-yl)isoindoline-1,3-dione] here?
The remaining activity at 1 µM was under 50%.
